Values quoted from earlier work in patent publication US20140100272A1, “METHODS OF ADMINISTERING COMPOSITIONS COMPRISING DOCOSAPENTAENOIC ACID” (Matinas BioPharma, Inc., priority 2012, published 2014).

Settings: in vivo

CC[C@H](C)C(=O)O[C@H]1C[C@@H](C)C=C2C=C[C@H](C)[C@H](CC[C@@H]3C[C@@H](O)CC(=O)O3)[C@H]21 [lovastatin]
absorbed at rates: about 30%
